Measured values reported in US20080287375A1, “Selective Glycosidase Inhibitors, Methods of Making Inhibitors, and Uses Thereof” (SIMON FRASER UNIVERSITY, priority 2005, published 2008).

Key:
[1] = target: human placental β-hexosaminidase; assay: Inhibition of β-hexosaminidase, substrate MU-GlcNAc (5), Dixon plots; conditions: read-out: β-Hexosaminidase KI; Table 2; substrate 5 at 0.64 mM, pH 4.25, Dixon plots
[2] = tested on: O-GlcNAc modified proteins in rat tissues; assay: Oral availability: tissue O-GlcNAc levels in rats fed inhibitor in chow; format: in vivo
Description: To determine if the inhibitor 9c is orally available, it was incorporated into the chow (Lab Diet 5001 Rodent Diet, PMI Nutrition International, LLC). To make the rat chow, 600 g of the ground chow was mixed with 355 ml of water and 5 μL of the inhibitor dissolved in ethanol. Small pieces were then prepared with a pasta machine (Pasta Express, Creative) and dehydrated overnight at 37° C. (Snackmaster Dehydrator, American Harvest). Five sets of chow were made with the following amounts of inhibitor: 0 mg kg^−1 days^−1, 100 or 1000 mg kg^−1 days^−1 of the deprotected (polar) inhibitor, and 100 or 1000 mg kg^−1 day^−1 of the protected (non-polar) inhibitor. […] Ten five-week old healthy Sprague-Dawley rats (two per set of food) were then allowed to feed on the rat chow for three days. The animals were then sacrificed and tissues were collected, homogenized, and analyzed as described above.

[3] = target: T1, O-GlcNAcase (Homo sapiens, UniProt O60502)
T1 sequence (O60502 1-916): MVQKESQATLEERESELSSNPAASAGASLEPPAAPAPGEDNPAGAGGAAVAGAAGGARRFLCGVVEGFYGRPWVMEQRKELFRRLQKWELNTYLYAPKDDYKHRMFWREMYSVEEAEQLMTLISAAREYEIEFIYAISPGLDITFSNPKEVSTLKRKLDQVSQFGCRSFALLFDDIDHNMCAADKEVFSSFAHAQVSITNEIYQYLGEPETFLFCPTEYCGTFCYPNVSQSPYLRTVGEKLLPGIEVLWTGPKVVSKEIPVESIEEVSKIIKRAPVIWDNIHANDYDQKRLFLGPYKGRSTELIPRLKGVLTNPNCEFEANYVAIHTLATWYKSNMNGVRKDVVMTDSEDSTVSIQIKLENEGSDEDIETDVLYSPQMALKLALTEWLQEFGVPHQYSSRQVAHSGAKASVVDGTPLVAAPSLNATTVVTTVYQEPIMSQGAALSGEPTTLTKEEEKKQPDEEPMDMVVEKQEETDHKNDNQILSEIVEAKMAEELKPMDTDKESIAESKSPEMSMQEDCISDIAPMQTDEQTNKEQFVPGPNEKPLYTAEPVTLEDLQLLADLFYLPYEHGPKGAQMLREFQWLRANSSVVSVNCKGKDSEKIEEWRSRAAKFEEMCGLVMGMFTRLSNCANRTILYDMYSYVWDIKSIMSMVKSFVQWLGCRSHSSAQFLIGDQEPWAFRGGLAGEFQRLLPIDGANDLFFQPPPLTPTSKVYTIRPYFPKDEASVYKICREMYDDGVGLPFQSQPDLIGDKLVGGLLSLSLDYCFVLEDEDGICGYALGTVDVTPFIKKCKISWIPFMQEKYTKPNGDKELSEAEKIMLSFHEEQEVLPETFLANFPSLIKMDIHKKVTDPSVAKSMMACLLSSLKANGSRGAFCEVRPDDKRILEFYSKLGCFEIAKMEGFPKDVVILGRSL

[4] = tested on: O-GlcNAc modified proteins in rat tissues; assay: Western blot of O-GlcNAc modified proteins in tissues of rats after tail vein injection of varying doses; format: in vivo
Description: Four rats were treated by tail vein injection of different doses of inhibitor 9c or a buffer control. Two sequential injections were performed approximately 18 hours apart and the rats were then sacrificed 24 hours after the first injection. Western blot analyses using an α-O-GlcNAc antibody (CTD110.6) clearly indicate that the inhibitor 9c easily gains access into a variety of tissues including brain (A), muscle (B) and liver (C) and doses as low as 50 mg kg-1 are almost enough to elicit a maximal increase in O-GlcNAc levels.
Eight give-week old healthy Sprague-Dawley rats (Charles River) were caged in pairs. The animals were allowed to acclimatize to their new surroundings at the Simon Fraser University Animal Care Facilities (SFU ACF) for one week. At 3:00 pm, four rats were given a tail vein injection of 400 μl of inhibitor 9c dissolved in PBS buffer (pH 7.4) at a dose of 50 mg kg^−1. The remaining four rats were given a tail vein injection of 400 μl of PBS as a control. All solutions were pre-sterilized through a 0.2 μm filter (Millipore) and injected with 0.5 mL syringes containing a 28 gauge×0.5″ needle (Terumo) as bolus over 10 seconds. Food was withdrawn at approximately 11:00 pm. At 8:30 am the following morning, the rats were given a second injection. After three hours the rats were anesthetized with isoflurane and a 100 μL blood sample was taken from the jugular vein to measure the fasting blood glucose levels. An intravenous glucose tolerance test (IVGTT) was then performed. A 0.5 mL injection of a 50% w/v solution of glucose dissolved in PBS (pre-sterilized) was administered via the tail vein over 30 seconds. At 10, 20, 30, 40, 60, and 90 minutes after the injection of glucose, a 100 μL sample of blood was taken from the jugular vein. Immediately following blood sampling, a small aliquot of the blood was used to measure the blood glucose concentration using a glucometer (Accu-Check Advantage, Roche) and the remaining blood was stored on ice for 20 minutes and spun down to isolate the serum. Following completion of the IVGTT, the rats were sacrificed with 1:1 mixture of CO2/O2. Tissue samples (brain, muscle, liver, spleen, pancreas, fat) were immediately harvested and flash frozen with liquid nitrogen and stored at −80° C. To homogenize the tissues to obtain a cell extract, tissue were kept frozen while they were ground with a mortal and pestle into a fine powder. 100 mg of the powder was then homogenized in 1 mL of cold lysis buffer (50 mM Tris, 0.5% sodium deoxycholate, 0.1% SDS, 1% nonidet P-40, 1 mM EDTA, 1 mM PMSF, and 1 mM butyl-NAG-thiazoline) using two 10 second pulse on a Jenke and Kunkel Ultra-Turrax tissue homogenizer tissue homogenizer. Tissues were then spun down at 13,000 rpm in a microcentrifuge (eppendrof) to remove the cell debris. The soluble cell extract was then analyzed for levels O-GlcNAc modified proteins using Western blot analysis as described above for the cell studies.

[5] = rats fed inhibitor in food for three days

CCCC1=N[C@@H]2[C@@H](O)[C@H](O)[C@@H](CO)O[C@@H]2S1 [Compound 9c, 1,2-dideoxy-2′-propyl-α-D-glucopyranoso-[2,1-d]-2′-thiazoline]
Ki [1]: 340 µM
cellular levels of O-GlcNAc modified proteins in brain tissue, oral 100 mg/kg/day ([2]; rats fed inhibitor in chow for three days): marked increases
cellular levels of O-GlcNAc modified proteins in brain tissue, oral 1000 mg/kg/day ([2]; rats fed inhibitor in chow for three days, compared with 100 mg/kg/day): even greater
O-GlcNAc modified proteins in brain, muscle, pancreas, fat and spleen, oral 100 mg kg^−1 day^−1 (FIG. 12 legend) [2, 5]: large increases
O-GlcNAc modified proteins in tissues, oral 1000 mg kg^−1 days^−1 (FIG. 12 legend) [2, 5]: slightly greater increases
KI for O-GlcNAcase greater than that of parent compound (9a) [3]: 3 fold
inhibition of O-GlcNAcase, in words [3]: potent inhibitors
selectivity for O-GlcNAcase over β-hexosaminidase, in words [3]: remarkable selectivity
selectivity ratio for O-GlcNAcase over β-hexosaminidase [3]: 1500 fold
Selectivity Ratio (β-Hex KI/O-GlcNAcase KI) ([3]; Table 2): 1500
discomforts of treated rats compared to the control rat ([4]; tail vein injection): did not appear to show any discomforts
dose enough to elicit the maximal increase in O-GlcNAc modified proteins ([4]; tail vein injection): 50 mg/kg
time for which the inhibitor retains an effect ([4]; tail vein injection): ≥ 6 h
time in which the inhibitor gains access to a wide variety of tissues ([4]; tail vein injection): less than 24 hours
cellular levels of O-GlcNAc modified proteins in brain tissue ([4]; tail vein injection, 50, 120 and 300 mg/kg, compared to controls): marked increases
dose almost enough to elicit a maximal increase in O-GlcNAc levels ([4]; tail vein injection, brain, muscle, liver): ~50 mg/kg
